Measurements published in ChEMBL document CHEMBL4837220, “Development of tricyclic N-benzyl-4-hydroxybutanamide derivatives as inhibitors of GABA transporters mGAT1-4 with anticonvulsant, antinociceptive, and antidepressant activity” (Eur J Med Chem, 2021).
Activity calls are given as the source filed them.

Assays:
[1] = target: T1, Sodium- and chloride-dependent GABA transporter 1 (Mus musculus, UniProt P31648); assay: Inhibition of mouse GAT1 expressed in human HEK293 cell line assessed as inhibition of [3H]GABA uptake measured after 40 mins by […]; assay type: cell-based
GABA transporter 2 = target: T2, GABA transporter 2 (Mus musculus, UniProt P31651); assay: Inhibition of mouse GAT2 expressed in human HEK293 cell line assessed as inhibition of [3H]GABA uptake measured after 40 mins by […]; assay type: cell-based
T2 sequence (P31651 whole entry): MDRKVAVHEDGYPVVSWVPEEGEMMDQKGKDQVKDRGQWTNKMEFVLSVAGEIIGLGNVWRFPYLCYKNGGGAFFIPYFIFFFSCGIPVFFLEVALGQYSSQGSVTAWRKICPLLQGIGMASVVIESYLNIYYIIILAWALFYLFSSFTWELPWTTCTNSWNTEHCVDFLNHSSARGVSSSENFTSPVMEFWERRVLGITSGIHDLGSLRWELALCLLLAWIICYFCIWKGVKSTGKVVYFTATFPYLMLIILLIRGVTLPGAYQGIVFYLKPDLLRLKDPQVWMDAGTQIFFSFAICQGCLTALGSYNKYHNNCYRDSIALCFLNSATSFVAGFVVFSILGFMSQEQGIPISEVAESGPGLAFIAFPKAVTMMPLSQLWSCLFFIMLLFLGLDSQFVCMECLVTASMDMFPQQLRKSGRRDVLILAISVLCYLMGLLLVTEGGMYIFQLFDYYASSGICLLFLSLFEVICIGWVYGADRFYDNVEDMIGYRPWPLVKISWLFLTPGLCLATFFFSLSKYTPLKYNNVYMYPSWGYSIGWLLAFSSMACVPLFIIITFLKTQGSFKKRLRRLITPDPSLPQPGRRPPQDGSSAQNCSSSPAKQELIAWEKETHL

GABA transporter 4 = target: T3, GABA transporter 4 (Mus musculus, UniProt P31650); assay: Inhibition of mouse GAT4 expressed in human HEK293 cell line assessed as inhibition of [3H]GABA uptake measured after 40 mins by […]; assay type: cell-based
T3 sequence (P31650 whole entry): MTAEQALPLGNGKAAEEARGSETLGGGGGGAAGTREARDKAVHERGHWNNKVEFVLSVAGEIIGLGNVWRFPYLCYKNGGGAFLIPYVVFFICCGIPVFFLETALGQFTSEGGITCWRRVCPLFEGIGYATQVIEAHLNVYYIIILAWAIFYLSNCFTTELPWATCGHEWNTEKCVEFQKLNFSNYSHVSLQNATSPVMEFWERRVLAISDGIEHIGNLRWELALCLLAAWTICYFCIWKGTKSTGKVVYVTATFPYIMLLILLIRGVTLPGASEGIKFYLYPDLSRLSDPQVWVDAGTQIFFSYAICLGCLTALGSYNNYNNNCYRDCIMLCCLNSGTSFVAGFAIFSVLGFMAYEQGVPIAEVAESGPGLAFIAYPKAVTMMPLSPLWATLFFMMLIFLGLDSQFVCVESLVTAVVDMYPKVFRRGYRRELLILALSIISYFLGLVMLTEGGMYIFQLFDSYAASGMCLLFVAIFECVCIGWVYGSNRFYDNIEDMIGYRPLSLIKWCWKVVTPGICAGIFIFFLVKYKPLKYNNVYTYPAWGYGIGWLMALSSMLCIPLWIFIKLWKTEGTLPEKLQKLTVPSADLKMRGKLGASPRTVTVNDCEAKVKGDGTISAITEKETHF

[2] = target: Sodium- and chloride-dependent GABA transporter 1 (Mus musculus) (UniProt P31648); assay: Residual NO711 binding to mouse GAT1 expressed in human HEK293 cell line at 100 uM by MS binding assay relative to control
[3] = target: T1, Sodium- and chloride-dependent GABA transporter 1; assay: Inhibition of NO711 binding to mouse GAT1 expressed in human HEK293 cell line by MS binding assay
[4] = target: T4, GABA transporter 2 (Mus musculus) (UniProt P31651); assay: Inhibition of mouse GAT2 expressed in human HEK293 cell line assessed as residual [3H]GABA uptake at 100 uM measured after 40 mins by […]
T4 sequence (whole entry): T2 sequence (P31651 whole entry)

[5] = target: GABA transporter 3 (Mus musculus, Slc6a13); assay: Inhibition of mouse GAT3 expressed in human HEK293 cell line assessed as inhibition of [3H]GABA uptake measured after 40 mins by […]
Mus musculus = assay: Anticonvulsant activity in CD-1 mouse assessed as elevation of seizure threshold at 10 mg/kg, ip measured by electroconvulsive threshold test relative to control; assay type: functional, organism-based

| Structure (SMILES) | IC50 [1] [µM] | IC50 (GABA transporter 2) [µM] | IC50 (GABA transporter 4) [µM] | residual activity [2] [%] | pKi [3] | residual activity [4] [%] | pIC50 [5] | Activity (Mus musculus) |
| --- | --- | --- | --- | --- | --- | --- | --- | --- |
| CN(CCC=C1c2ccccc2-c2ccccc21)C(CCO)C(=O)NCc1ccc(Cl)cc1 (centres undefined) | 42.7 | 32.4 | 44.7 | 91 | – | – | – | – |
| CC(=O)NCCC(C(=O)NCc1ccc(Cl)cc1)N(C)CCC=C1c2ccccc2CCc2ccccc21 (centres undefined) | 28.2 | 47.9 | 12.6 | 90 | – | – | – | – |
| CN(CCC=C1c2ccccc2C=Cc2ccccc21)C(CCO)C(=O)NCc1ccc(Cl)cc1 (centres undefined) | 69.2 | 14.5 | 15.8 | 63 | – | – | – | – |
| CN(CCC=C1c2ccccc2CCc2ccccc21)C(CCN)C(=O)NCc1ccc(Cl)cc1 (centres undefined) | 6.31 | 11 | 5.62 | – | 4.6 | – | – | – |
| COc1ccc(C(OCCN2CCC[C@H](C(=O)O)C2)(c2ccc(OC)cc2)c2ccc(-c3ccc(C=O)cc3)cc2)cc1 | 72.4 | – | 1.29 | 77 | – | 73 | – | – |
| CN(CCC=C1c2ccccc2CCc2ccccc21)C(CCN)C(=O)NCc1ccc(F)cc1 (centres undefined) | 6.31 | 11.7 | 4.37 | – | 4.96 | – | – | – |
| CN(CCC=C1c2ccccc2-c2ccccc21)C(CCO)C(=O)NCc1ccccc1Cl (centres undefined) | 33.1 | 25.7 | 26.9 | 93 | – | – | – | – |
| CN(CCC=C1c2ccccc2CCc2ccccc21)C(CCO)C(=O)NCc1ccc(Cl)cc1 (centres undefined) | 10 | 7.76 | 15.8 | 79 | – | – | – | – |
| CC(=O)NCCC(C(=O)NCc1ccc(C)cc1)N(C)CCC=C1c2ccccc2CCc2ccccc21 (centres undefined) | 13.8 | 15.5 | 13.5 | 69 | – | – | – | – |
| Cc1ccc(CNC(=O)C(CCO)N(C)CCC=C2c3ccccc3-c3ccccc32)cc1 (centres undefined) | 31.6 | 30.2 | 30.9 | 99 | – | – | – | – |
| CN(CCC=C1c2ccccc2CCc2ccccc21)C(CCN)C(=O)NCc1ccccc1Cl (centres undefined) | 6.61 | 13.5 | 4.9 | – | 4.87 | – | – | – |
| Cc1ccc(CNC(=O)C(CCO)N(C)CCC=C2c3ccccc3C=Cc3ccccc32)cc1 (centres undefined) | 27.5 | 9.77 | 9.12 | 55 | – | – | – | – |
| CN(CCC=C1c2ccccc2-c2ccccc21)C(CCO)C(=O)NCc1ccc(F)cc1 (centres undefined) | 37.2 | 25.7 | 35.5 | 90 | – | – | – | – |
| CC(=O)NCCC(C(=O)NCc1ccccc1Cl)N(C)CCC=C(c1sccc1C)c1sccc1C (centres undefined) | – | 4.47 | – | – | – | – | 5.61 | – |
| CN(CCC=C1c2ccccc2CCc2ccccc21)C(CCN)C(=O)NCc1ccccc1 (centres undefined) | 8.13 | 9.55 | 4.68 | – | 4.78 | – | – | – |
| CN(CCC=C(c1ccccc1)c1ccccc1)C(CCN)C(=O)NCc1ccccc1Cl (centres undefined) | – | – | – | – | 4.96 | – | – | – |
| CN(CCC=C1c2ccccc2CCc2ccccc21)C(CCO)C(=O)NCc1ccccc1Cl (centres undefined) | 25.1 | 11 | 15.8 | 82 | – | – | – | – |
| Cc1ccc(CNC(=O)C(CCN)N(C)CCC=C2c3ccccc3CCc3ccccc32)cc1 (centres undefined) | 7.24 | 11.2 | 6.46 | – | 5.14 | – | – | – |
| CN(CCC=C1c2ccccc2CCc2ccccc21)C(CCO)C(=O)NCc1ccc(F)cc1 (centres undefined) | 21.9 | 5.75 | 13.2 | 81 | – | – | – | – |
| CC(=O)NCCC(C(=O)NCc1ccccc1)N(C)CCC=C1c2ccccc2CCc2ccccc21 (centres undefined) | 28.8 | 37.2 | 17.8 | 77 | – | – | – | – |
| CN(CCC=C(c1ccccc1)c1ccccc1)C(CCO)C(=O)NCc1ccccc1Cl (centres undefined) | – | 12.6 | 10 | 54 | – | – | 5.14 | – |
| O=C(O)C1=CCCN(CCO/N=C/c2ccccc2-c2ccc(Cl)cc2Cl)C1 | – | 49 | – | – | 8.29 | – | 4.35 | inactive |
| CC(=O)NCCC(C(=O)NCc1ccccc1Cl)N(C)CCC=C1c2ccccc2CCc2ccccc21 (centres undefined) | 28.8 | 26.3 | 18.6 | 87 | – | – | – | – |
| CN(CCC=C1c2ccccc2CCc2ccccc21)C(CCO)C(=O)NCc1ccccc1 (centres undefined) | 20 | 9.12 | 17 | 51 | – | – | – | – |
| CC(=O)NCCC(C(=O)NCc1ccc(F)cc1)N(C)CCC=C1c2ccccc2CCc2ccccc21 (centres undefined) | 13.8 | 19.5 | 11.2 | 71 | – | – | – | – |
| CN(CCC=C1c2ccccc2C=Cc2ccccc21)C(CCO)C(=O)NCc1ccc(F)cc1 (centres undefined) | 21.9 | 10.2 | 13.5 | 71 | – | – | – | – |
| CN(CCC=C1c2ccccc2-c2ccccc21)C(CCO)C(=O)NCc1ccccc1 (centres undefined) | 24 | 17.8 | 25.1 | 75 | – | – | – | – |
| CN(CCC=C1c2ccccc2C=Cc2ccccc21)C(CCO)C(=O)NCc1ccccc1Cl (centres undefined) | 20.9 | 6.76 | 9.55 | 69 | – | – | – | – |
| O=C(O)[C@@H]1CCCN(CCC=C2c3ccccc3-c3ccccc32)C1 | 2 | – | – | – | – | – | – | – |
| O=C(O)C1CCCN(CCC=C2c3ccccc3CCc3ccccc32)C1 (centres undefined) | 13.5 | – | – | – | – | – | – | – |
